Assay results taken from patent US10526309B2, “Pan-TAM inhibitors and Mer/Axl dual inhibitors” (The University of North Carolina at Chapel Hill, priority 2015, dated 2020).
Read-outs that look alike come from different tables or passages of the source.

Experiments:
Format in all cases: biochemical
[1] = target: T1, Tyro3 (Homo sapiens, UniProt Q06418); experiment: Tyro3 kinase inhibition IC50
T1 sequence (Q06418 41-890): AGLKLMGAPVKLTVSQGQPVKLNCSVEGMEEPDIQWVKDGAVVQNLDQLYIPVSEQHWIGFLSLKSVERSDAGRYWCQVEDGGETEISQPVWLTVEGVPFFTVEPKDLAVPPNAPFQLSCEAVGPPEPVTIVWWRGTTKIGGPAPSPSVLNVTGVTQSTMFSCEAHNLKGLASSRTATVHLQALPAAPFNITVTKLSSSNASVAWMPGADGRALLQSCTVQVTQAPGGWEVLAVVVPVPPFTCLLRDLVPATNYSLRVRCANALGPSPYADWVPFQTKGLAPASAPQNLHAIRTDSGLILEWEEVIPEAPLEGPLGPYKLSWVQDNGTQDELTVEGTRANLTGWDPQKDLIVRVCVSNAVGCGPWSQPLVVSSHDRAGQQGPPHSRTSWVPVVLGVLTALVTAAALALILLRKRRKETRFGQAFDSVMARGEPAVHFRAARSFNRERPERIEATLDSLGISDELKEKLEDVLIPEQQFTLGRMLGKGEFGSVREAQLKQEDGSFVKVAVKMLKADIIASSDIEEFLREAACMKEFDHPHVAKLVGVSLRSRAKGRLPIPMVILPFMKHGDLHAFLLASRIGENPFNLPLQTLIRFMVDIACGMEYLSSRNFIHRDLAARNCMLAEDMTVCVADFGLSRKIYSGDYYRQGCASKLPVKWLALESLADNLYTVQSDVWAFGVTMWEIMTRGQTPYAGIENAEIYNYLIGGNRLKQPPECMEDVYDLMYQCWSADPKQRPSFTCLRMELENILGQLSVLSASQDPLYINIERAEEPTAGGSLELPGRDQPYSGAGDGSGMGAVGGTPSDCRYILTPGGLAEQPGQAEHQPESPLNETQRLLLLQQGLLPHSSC

[2] = target: T2, Axl (Homo sapiens, UniProt P30530); experiment: Axl kinase inhibition IC50
T2 sequence (P30530 26-894): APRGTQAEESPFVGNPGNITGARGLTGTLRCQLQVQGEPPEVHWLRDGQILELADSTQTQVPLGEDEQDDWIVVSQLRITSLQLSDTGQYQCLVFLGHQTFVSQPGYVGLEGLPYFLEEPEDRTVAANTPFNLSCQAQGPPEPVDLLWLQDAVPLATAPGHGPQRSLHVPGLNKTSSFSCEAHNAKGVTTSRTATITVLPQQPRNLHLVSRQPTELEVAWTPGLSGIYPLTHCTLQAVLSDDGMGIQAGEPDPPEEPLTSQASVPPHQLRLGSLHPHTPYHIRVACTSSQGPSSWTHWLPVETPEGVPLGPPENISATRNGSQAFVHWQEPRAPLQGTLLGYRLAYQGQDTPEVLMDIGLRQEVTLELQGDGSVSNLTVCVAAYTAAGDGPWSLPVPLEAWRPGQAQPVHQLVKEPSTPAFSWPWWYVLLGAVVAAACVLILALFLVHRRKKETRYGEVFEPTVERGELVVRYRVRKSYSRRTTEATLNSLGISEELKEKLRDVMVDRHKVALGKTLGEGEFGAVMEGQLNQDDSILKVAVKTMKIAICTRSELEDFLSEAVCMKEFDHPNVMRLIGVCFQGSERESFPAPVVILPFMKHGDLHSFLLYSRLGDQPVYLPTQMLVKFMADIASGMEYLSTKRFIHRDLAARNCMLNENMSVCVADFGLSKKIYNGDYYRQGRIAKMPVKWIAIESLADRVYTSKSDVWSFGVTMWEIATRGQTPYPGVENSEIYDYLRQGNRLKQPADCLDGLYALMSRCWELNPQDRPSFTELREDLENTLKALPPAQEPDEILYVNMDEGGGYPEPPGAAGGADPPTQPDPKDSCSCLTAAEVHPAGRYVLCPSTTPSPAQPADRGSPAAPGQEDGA

[3] = target: T3, Mer (Homo sapiens, UniProt Q12866); experiment: Mer kinase inhibition IC50; conditions: read-out: Mer IC50
T3 sequence (Q12866 21-999): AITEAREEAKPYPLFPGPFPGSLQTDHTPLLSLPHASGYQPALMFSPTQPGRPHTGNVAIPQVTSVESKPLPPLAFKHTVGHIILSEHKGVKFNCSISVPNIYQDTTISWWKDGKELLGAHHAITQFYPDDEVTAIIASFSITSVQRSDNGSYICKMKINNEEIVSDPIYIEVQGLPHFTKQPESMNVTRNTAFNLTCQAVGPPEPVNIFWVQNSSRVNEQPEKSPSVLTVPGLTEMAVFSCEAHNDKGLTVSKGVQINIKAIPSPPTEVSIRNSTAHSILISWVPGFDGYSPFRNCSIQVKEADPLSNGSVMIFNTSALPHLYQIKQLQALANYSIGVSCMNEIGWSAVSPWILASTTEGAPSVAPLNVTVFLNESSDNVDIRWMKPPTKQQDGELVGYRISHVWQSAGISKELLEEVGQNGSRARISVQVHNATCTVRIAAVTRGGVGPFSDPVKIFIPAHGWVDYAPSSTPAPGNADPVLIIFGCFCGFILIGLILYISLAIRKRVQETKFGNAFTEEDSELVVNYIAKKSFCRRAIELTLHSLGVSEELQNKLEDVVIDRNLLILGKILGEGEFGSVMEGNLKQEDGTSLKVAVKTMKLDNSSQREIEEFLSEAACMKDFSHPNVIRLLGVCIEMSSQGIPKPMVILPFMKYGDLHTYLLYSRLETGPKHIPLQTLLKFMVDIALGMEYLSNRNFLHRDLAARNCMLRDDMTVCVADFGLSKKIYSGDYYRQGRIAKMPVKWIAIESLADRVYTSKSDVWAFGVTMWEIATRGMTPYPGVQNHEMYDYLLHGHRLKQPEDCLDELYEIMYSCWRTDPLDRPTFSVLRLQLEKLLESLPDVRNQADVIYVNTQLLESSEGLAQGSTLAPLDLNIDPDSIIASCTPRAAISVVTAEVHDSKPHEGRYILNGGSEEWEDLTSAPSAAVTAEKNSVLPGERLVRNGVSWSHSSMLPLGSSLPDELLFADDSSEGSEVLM

IC50 ([1]; Table 2, read-out: Tyro3 IC50) [µM] | IC50 ([2]; Table 2) [µM] | IC50 ([3]; Table 2) [µM] | SMILES | also measured
0.1 to 1 | 1 to 30 | 0.1 to 1 | O[C@H]1CC[C@H](Nc2nc(Nc3ccc(C4=CCNCC4)cc3)ncc2-c2ccccn2)CC1 [UNC4402A] | –
0.1 to 1 | 0.1 to 1 | 0.01 to 0.1 | O[C@H]1CC[C@H](Nc2nc(Nc3ccc(C4=CCOCC4)cc3)ncc2-c2ccccn2)CC1 [UNC4434A] | –
0.1 to 1 | 0.1 to 1 | 0.01 to 0.1 | O[C@H]1CC[C@H](Nc2nc(Nc3ccc(C4=CCCNC4)cc3)ncc2-c2ccccn2)CC1 [UNC5113A] | –
0.1 to 1 | 1 to 30 | 0.1 to 1 | O[C@H]1CC[C@H](Nc2nc(Nc3ccc(C4CCNCC4)cc3)ncc2-c2ccccn2)CC1 [UNC5128A] | –
0.1 to 1 | 0.1 to 1 | 0.1 to 1 | O[C@H]1CC[C@H](Nc2nc(Nc3ccc(C4CCCNC4)cc3)ncc2-c2ccccn2)CC1 (stereo partly drawn) [UNC5129A] | –
0.1 to 1 | 0.1 to 1 | 0.01 to 0.1 | CN1CCC(c2ccc(Nc3ncc(-c4ccccn4)c(N[C@H]4CC[C@H](O)CC4)n3)cc2)CC1 [UNC5130A] | –
0.1 to 1 | 0.1 to 1 | 0.01 to 0.1 | CN1CCCC(c2ccc(Nc3ncc(-c4ccccn4)c(N[C@H]4CC[C@H](O)CC4)n3)cc2)C1 (stereo partly drawn) [UNC5131A] | –
0.1 to 1 | 1 to 30 | 0.1 to 1 | CN1CCC(c2ccc(Nc3ncc(-c4ccccn4)c(N[C@H]4CC[C@H](C)CC4)n3)cc2)CC1 [UNC5133A] | –
0.1 to 1 | 1 to 30 | 0.1 to 1 | CN1CCC(c2ccc(Nc3ncc(-c4ccccn4)c(NC4CCOCC4)n3)cc2)CC1 [UNC5134A] | –

Further lines, the compound ahead of its results:

SMILES | IC50 ([1]; Table 2, read-out: Tyro3 IC50) [µM] | IC50 ([2]; Table 2) [µM] | IC50 ([3]; Table 2) [µM] | also measured
O[C@H]1CC[C@H](Nc2nc(Nc3ccc(C#Cc4cc(-c5ccncc5)ccn4)cc3)ncc2-c2ccccn2)CC1 [UNC4363A] | – | – | – | IC50 ([1]; Table 4, read-out: Tryo3 IC50): 0.1 to 1 µM; IC50 ([2]; Table 4): 1 to 30 µM; IC50 ([3]; Table 4): 0.01 to 0.1 µM
CC(C)Nc1ccnc(C#Cc2ccc(Nc3ncc(-c4ccccn4)c(N[C@H]4CC[C@H](O)CC4)n3)cc2)c1 [UNC4364A] | – | – | – | IC50 ([1]; Table 4, read-out: Tryo3 IC50): 0.01 to 0.1 µM; IC50 ([2]; Table 4): 0.1 to 1 µM; IC50 ([3]; Table 4): 0.01 to 0.1 µM
O[C@H]1CC[C@H](Nc2nc(Nc3ccc(C#Cc4cc(Nc5ncco5)ccn4)cc3)ncc2-c2ccccn2)CC1 [UNC4392A] | – | – | – | IC50 ([1]; Table 4, read-out: Tryo3 IC50): 0.1 to 1 µM; IC50 ([2]; Table 4): 1 to 30 µM; IC50 ([3]; Table 4): 0.1 to 1 µM
COc1cccc(Oc2ccnc(C#Cc3ccc(Nc4ncc(-c5ccccn5)c(N[C@H]5CC[C@H](O)CC5)n4)cc3)c2)c1 [UNC4393A] | – | – | – | IC50 ([1]; Table 5, read-out: Tryo3 IC50): 1 to 30 µM; IC50 ([2]; Table 5): 1 to 30 µM; IC50 ([3]; Table 5): 1 to 30 µM
CC(C)Oc1ccnc(C#Cc2ccc(Nc3ncc(-c4ccccn4)c(N[C@H]4CC[C@H](O)CC4)n3)cc2)c1 [UNC4394A] | – | – | – | IC50 ([1]; Table 5, read-out: Tryo3 IC50): 0.1 to 1 µM; IC50 ([2]; Table 5): 0.1 to 1 µM; IC50 ([3]; Table 5): 0.1 to 1 µM
CC(C)N1CCC(=Cc2ccc(-c3cnc(Nc4ccc(F)cc4)nc3N[C@H]3CC[C@H](O)CC3)nc2)CC1 [UNC4397A] | – | – | – | IC50 ([1]; Table 1, read-out: Tyro3 IC50): < 0.01 µM; IC50 ([2]; Table 1): < 0.01 µM; IC50 ([3]; Table 1): < 0.01 µM
CC[C@H](N)C(=O)N1CC=C(c2ccc(Nc3ncc(-c4ccccn4)c(N[C@H]4CC[C@H](O)CC4)n3)cc2)CC1 [UNC4403A] | 0.1 to 1 | 1 to 30 | 0.1 to 1 | –
CN1CC=C(c2ccc(Nc3ncc(-c4ccccn4)c(N[C@H]4CC[C@H](O)CC4)n3)cc2)CC1 [UNC4431A] | 0.1 to 1 | 1 to 30 | 0.1 to 1 | –
O[C@H]1CC[C@H](Nc2nc(Nc3ccc(-c4cccnc4)cc3)ncc2-c2ccccn2)CC1 [UNC4435A] | 0.1 to 1 | 1 to 30 | 0.1 to 1 | –
CN1CCC(N2CC=C(c3ccc(Nc4ncc(-c5ccccn5)c(N[C@H]5CC[C@H](O)CC5)n4)cc3)CC2)CC1 [UNC5052A] | 0.1 to 1 | 0.1 to 1 | 0.01 to 0.1 | –
O[C@H]1CC[C@H](Nc2nc(Nc3ccc(C4=CCCN(C5CCC5)C4)cc3)ncc2-c2ccccn2)CC1 [UNC5070A] | 0.1 to 1 | 1 to 30 | 0.1 to 1 | –
CN1CCC(N2CCC(c3ccc(Nc4ncc(-c5ccccn5)c(N[C@H]5CC[C@H](O)CC5)n4)cc3)CC2)CC1 [UNC5072A] | 0.1 to 1 | 0.1 to 1 | 0.01 to 0.1 | –
CC(C)Nc1nc(Nc2ccc(C3CCN(C)CC3)cc2)ncc1-c1ccccn1 [UNC5135A] | 0.1 to 1 | 0.1 to 1 | 0.01 to 0.1 | –
CNc1nc(Nc2ccc(C3CCN(C)CC3)cc2)ncc1-c1ccccn1 [UNC5136A] | 1 to 30 | 1 to 30 | 1 to 30 | –
